Measurements reported in patent publication US5412123A, “Anthraquinone and anthracene derivatives as inhibitors of the cell-adhesion molecules of the immune system” (Glycomed Incorporated, priority 1993, dated 1995).

Assays:
L-selectin = assay: Inhibition of L-selectin IgG chimera binding to sLex on microtiter wells; settings: FIG. 7; L-selectin 35 ng/ml; sennoside B from 2 mM, serial 1/2 dilutions; sLex 25 pm/well
Experimental: (§1) The capacity of the multivalent anthraquinone derivative, Sennoside B, to inhibit selectin binding to sLex was tested essentially as described by Foxall, C., et al J. Cell Biol., vol. 117, pages 895-902 (1992) using selectin IgG chimeras.
(§2) The following assay procedure was used. sLex at 25 pm/well was evaporated onto microtiter wells in MeOH and H2 O overnight. The plates were washed with H2 O and blocked with 5% BSA in PBS with 1 mM Ca for 1 hour. L-selectin was diluted to 35 ng/ml in 1% BSA PBS with 1 mM Ca and 1:1500 biotinylated goat F(ab') anti-human IgG Fc (CalTag, corp.) and streptavidin-alkaline phosphatase. E-selectin at 50 ng/ml and P-selectin at 750 ng/ml were similarly diluted with 1:1000 dilutions of biotinylated goat F(ab') anti-human IgG Fc and streptavidin-alkaline phosphatase. These were allowed to complex for 15 minutes at 37° C.
(§3) Part of each selectin solution was made 2 mM with sennoside B (obtained from Pfaltz and Bauer, Inc., Waterbury, Conn.) The most concentrated solutions were diluted with the selectin solution to yield 3 solutions each 1/2 as concentrated as the previous. The solutions with selectin and inhibitor were incubated for 45 minutes at 37° C. […]
(§4) Binding is expressed as "% of No Addition Control." That is, in some wells, no inhibitor was present, and the binding in these wells represents the maximum (100%) binding.

E-selectin = assay: Inhibition of E-selectin IgG chimera binding to sLex on microtiter wells; settings: FIG. 6; E-selectin 50 ng/ml; sennoside B from 2 mM, serial 1/2 dilutions; sLex 25 pm/well
Experimental: as §1, §2, §3, §4

P-selectin = assay: Inhibition of P-selectin IgG chimera binding to sLex on microtiter wells; settings: FIG. 8; P-selectin 750 ng/ml; sennoside B from 2 mM, serial 1/2 dilutions; sLex 25 pm/well
Experimental: as §1, §2, §3, §4

L-selectin binding to sLex (expressed as % of No Addition Control) (L-selectin): inhibited
E-selectin binding to sLex (expressed as % of No Addition Control) (E-selectin): inhibited
P-selectin binding to sLex (expressed as % of No Addition Control) (P-selectin): most inhibited
SMILES: O=C(O)c1cc(O)c2c(c1)[C@@H]([C@H]1c3cc(C(=O)O)cc(O)c3C(=O)c3c(O[C@@H]4O[C@H](CO)[C@@H](O)[C@H](O)[C@H]4O)cccc31)c1cccc(O[C@@H]3O[C@H](CO)[C@@H](O)[C@H](O)[C@H]3O)c1C2=O [Sennoside B]
